Experimental data reported in patent US12533408B2, “Treatment regimen for the treatment of autoimmune disorders” (Merck Patent GmbH, priority 2020, dated 2026).

System: lymphocytes (ALC, CD19+ B, CD4+ T, CD8+ T)
Assay: Post hoc analysis of ALC, lymphocyte subsets and lymphopenia by age (CLARITY, CLARITY Extension, ORACLE-MS, PREMIERE)
Method: Assessments included incidence and severity of Grade ≥3 lymphopenia; severity of Grade ≥3 lymphopenia was defined based on the NCI CTCAE v3.0 toxicity grading system as ALC levels <500 cells/μL. The time to recover from Grade 3 lymphopenia to Grade ≤2 (ALC ≥500 cells/μL) and to Grade ≤1 (ALC ≥800 cells/μL) were also assessed. […] All assessments were performed for each baseline age group (≤50 years and >50 years).

## Nc1nc(Cl)nc2c1ncn2[C@H]1C[C@H](O)[C@@H](CO)O1 [cladribine tablets, Cladribine]
Age >50
  Median (range) time to recovery from the first Grade ≥3 lymphopenia to Grade ≤1: 6.06 (range: 0.2-46.5) months
  Median (range) time to recovery from the first Grade ≥3 lymphopenia to Grade ≤2: 1.54 (range: 0.2-29.9) months
  mean (SD) number of episodes of recovery from Grade ≥3 lymphopenia to Grade ≤1 per patient: 1.3 (0.5)
Age ≤50
  Median (range) time to recovery from the first Grade ≥3 lymphopenia to Grade ≤1: 5.49 (range: 0.2-88.4) months
  Median (range) time to recovery from the first Grade ≥3 lymphopenia to Grade ≤2: 1.18 (range: 0.2-22.3) months
  mean (SD) number of episodes of recovery from Grade ≥3 lymphopenia to Grade ≤1 per patient: 1.2 (0.5)
Week 9, Age >50
  ALC decrease from baseline: 52.4%
  CD8+ T lymphocytes decrease from baseline: 43.4%
  CD19+ B lymphocytes decrease from baseline: 93.8%
  median (range) ALC at Year 1 nadir: 0.9 (0.3-2.5) ×10^9 cells/L
Week 9, Age ≤50
  ALC decrease from baseline: 43.5%
  CD19+ B lymphocytes decrease from baseline: 90.2%
  median (range) ALC at Year 1 nadir: 1.05 (0.2-6.7) ×10^9 cells/L
Week 60, Age ≤50
  CD4+ T lymphocytes decrease from baseline: 66.4%
Week 72, Age >50
  CD4+ T lymphocytes decrease from baseline: 73.7%
Week 72, Age ≤50
  CD8+ T lymphocytes decrease from baseline: 41.8%
Weeks 0-96, Age >50 (30/110)
  incidence of Grade ≥3 lymphopenia: 27.2%
Weeks 0-96, Age ≤50 (205/813)
  incidence of Grade ≥3 lymphopenia: 25.2%
Year 1
  Grade 4 lymphopenia episodes: No Grade 4 lymphopenia episodes
Year 2, Age >50
  Grade ≥3 lymphopenia, patients: 20.0%
Year 2, Age ≤50
  Grade ≥3 lymphopenia, patients: 18.7%
Year 2, aged >50 years (1 patient)
  Grade 4 lymphopenia, patients: 1.0%
Year 2, aged ≤50 years (2 patients)
  Grade 4 lymphopenia, patients: 0.3%
Year 2 nadir, Age >50
  ALC decrease from baseline: 58.2%
Year 2 nadir, Age ≤50
  ALC decrease from baseline: 55.4%
After last dose in treatment year 2
  recovery of ALC and lymphocyte subsets (CD19+ B and CD4+ T) to normal levels: 30-43 weeks
Treatment Year 1, Age >50
  Grade ≥3 lymphopenia, patients: 10.0%
Treatment Year 1, Age ≤50
  Grade ≥3 lymphopenia, patients: 8.3%
